Read-outs that look alike come from different tables or passages of the source.

The subject of experiment [1] is EA.hy926 endothelial hybrid cells. To be noted: positive control; ref Köhler et al.[20]; cited from earlier work.
The test system of experiment [2] is HeLa cervix carcinoma cells. Set-up: method as in Köhler et al.[20]. To be noted: positive control; ref Köhler et al.[20]; cited from earlier work.
For experiment [3], the system named is HT-29 colon carcinoma cells. To be noted: positive control; ref Köhler et al.[20]; cited from earlier work.
For experiment [4], the system named is U-87 glioblastoma cells. Conditions: positive control; ref Köhler et al.[20]; read-out: IC50 U87; cited from earlier work.
Experiment [5] relates to HCT-116 p53-/- colon carcinoma cells. Conditions: positive control; ref Köhler et al.[20]; cited from earlier work.
Experiment [6] has as its system HCT-116 colon carcinoma cells. To be noted: positive control; ref Köhler et al.[20]; cited from earlier work.
Experiment [7] deals with KB-V1^Vbl cervix carcinoma cells. To be noted: without verapamil; ref Köhler et al.[20]; cited from earlier work.
Experiment [8] relates to MCF-7 breast carcinoma cells. To be noted: positive control; ref Köhler et al.[20]; cited from earlier work.
Experiment [9] relates to 518A2 melanoma cells. Conditions: positive control; ref Köhler et al.[20]; cited from earlier work.
Experiment [10] relates to HDFa adult human dermal fibroblasts. Set-up: method as in Köhler et al.[20]. To be noted: non-malignant cells; ref Köhler et al.[20]; cited from earlier work.
The subject of experiment [11] is tested cancer and hybrid cell lines. Nature of the experiment: MTT assay, average over all tested cancer and hybrid cell lines. To be noted: for IC50: Homo sapiens.
Experimental: An 3-(4, 5-dimethylthiazol-2-yl)-2, 5-diphenyl tetrazolium bromid (MTT) assay was used for antiproliferative studies. Cancer cells (5 × 10^4 cells/mL, 100 μL/well) were placed in 96-well plates (10 × 10^4 cells/mL for HDFA and U87 cells), and the cells were incubated for 24 h at 5% CO2 and 95% humidity. Then, cells were treated with test compounds (at various concentrations) or solely with DMSO as a negative control for 72 h. Then, 12.5 μL of a 0.5% MTT solution in phosphate-buffered saline (PBS) was added to the cells, followed by incubation for 2 h at 37 °C. After centrifugation of the plates (300 × g, 5 min, 4 °C), the medium was discarded, and 25 μL of DMSO containing 10% SDS and 0.6% acetic acid was added, followed by incubation at 37 °C for at least 1 h. Formazan absorbance at λ = 570 nm was measured using a Tecan infinite F200 microplate reader and corrected for the background (λ = 630 nm). The 50% inhibitory concentration (IC50) values were calculated from dose-response curves (means ± SD, four independent experiments) compared to DMSO-treated control cells, which were set to 100%. GraphPad Prism 9 was used for curve-fitting.
The selectivity index (SI) was calculated as a measure of selectivity toward cancer cells compared to non-malignant cells.
The target in experiment [12] is T1, MYB (Homo sapiens, UniProt P10242, K503R/K527R).
T1 construct: expressed in transfected cells; host or cells: HEK-293 (HEK-MYB-Luc reporter cell line)
Kind of experiment: Luciferase-dependent MYB activity assay (HEK-MYB-Luc reporter cells). The experiment is classed as cell-based. Conditions: HEK-293 reporter cells, 16 h; read-out: IC50 inhibition of MYB activity. On the procedure: Compounds were tested using the HEK-MYB-Luc reporter cell line, which allows a doxycycline-dependent induction of MYB expression and harbors an MYB-dependent luciferase reporter plasmid, as previously described. After 16 h of substance treatment (0.0001-3 µM), luciferase activities were analyzed as described.

Experiment [13] relates to SW620/Ad300 colorectal cancer cells. Set-up: method as in PMID 9187269, PMID 34977876. To be noted: MDR SW620/Ad300 cells; cited from earlier work.

T1 sequence (P10242 whole entry K503R/K527R): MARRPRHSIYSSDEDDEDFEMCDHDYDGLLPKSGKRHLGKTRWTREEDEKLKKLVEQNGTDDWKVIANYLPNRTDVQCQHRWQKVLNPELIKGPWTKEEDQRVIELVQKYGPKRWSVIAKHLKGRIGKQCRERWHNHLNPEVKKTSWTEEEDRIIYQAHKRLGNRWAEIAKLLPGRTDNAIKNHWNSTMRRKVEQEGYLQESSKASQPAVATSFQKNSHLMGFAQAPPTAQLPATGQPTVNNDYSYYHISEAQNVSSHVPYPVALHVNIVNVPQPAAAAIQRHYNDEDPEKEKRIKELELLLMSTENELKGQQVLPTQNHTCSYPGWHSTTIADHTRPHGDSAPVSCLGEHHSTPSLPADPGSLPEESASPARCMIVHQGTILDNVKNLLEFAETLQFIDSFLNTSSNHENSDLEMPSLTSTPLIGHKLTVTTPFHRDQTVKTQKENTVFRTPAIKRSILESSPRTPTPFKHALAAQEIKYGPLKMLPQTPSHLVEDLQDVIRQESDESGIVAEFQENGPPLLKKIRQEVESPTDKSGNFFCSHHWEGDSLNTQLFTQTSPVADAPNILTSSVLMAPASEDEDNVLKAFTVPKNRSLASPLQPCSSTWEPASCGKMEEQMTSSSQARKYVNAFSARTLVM

With `N#CC1=C(N)Oc2c(ccc3ccccc23)C1c1cccc([N+](=O)[O-])c1` (stereo not shown) [1A, 2-amino-4-(3-nitrophenyl)-4H-naphtho(1,2-b)pyran-3-carbonitrile], the IC50 (commonly the concentration needed to halve the response being measured) in [1] was 30 ± 1 nM; in experiment [2] it was 40 ± 2 nM; in experiment [3] it was 30 ± 3 nM; in experiment [4], 70 ± 9 nM; in [5], 30 ± 3 nM; in [6], 8 ± 0.7 nM. Also, the IC50 in experiment [7] was 20 ± 2 nM; in [8], 200 ± 20 nM; in experiment [9], 10 ± 1 nM; in [10], 40700 nM; in experiment [11] (read-out: Average IC50 value of the tested cancer and hybrid cell lines (Ø IC50), average of all cell lines of Table 2) it was 52 nM. Further, in [11] (selectivity index, HDFa vs tumor cell average), the “SI (IC50 HDFa cells/IC50 tumor cell average)” value is recorded as 786.
As for `COc1cc(C2C(C#N)=C(N)Oc3c2ccc2ccccc32)cc(OC)c1OC` (stereo not shown) [1B], the concentration for half-maximal inhibition (IC50) in experiment [12] is 9.07 nM; in experiment [1], 20 ± 1 nM; in experiment [2] it was 10 ± 1 nM; in [3], 300 ± 40 nM; in experiment [4] it was 5 ± 0.2 nM; in experiment [5] it was 30 ± 2 nM. In addition, the IC50 in experiment [6] is 20 ± 1.9 nM; in experiment [7] it was 30 ± 1 nM; in experiment [8], 34 ± 2.5 nM; in experiment [9] it was 30 ± 0.1 nM; in experiment [11] (read-out: Average IC50 value of the tested cancer and hybrid cell lines (Ø IC50)), 53 nM.
On to `CC(=O)O[C@H]1C(=O)[C@@]2(C)[C@H]([C@H](OC(=O)c3ccccc3)[C@]3(O)C[C@H](OC(=O)[C@H](O)[C@@H](NC(=O)c4ccccc4)c4ccccc4)C(C)=C1C3(C)C)[C@]1(OC(C)=O)CO[C@@H]1C[C@@H]2O` [paclitaxel], for which the “reduction of effective concentration by treatment with P-gp modulators” value in experiment [13] was 100 fold.
As to `CC[C@]1(O)C[C@@H]2CN(CCc3c([nH]c4ccccc34)[C@@](C(=O)OC)(c3cc4c(cc3OC)N(C)[C@H]3[C@@](O)(C(=O)OC)[C@H](OC(C)=O)[C@]5(CC)C=CCN6CC[C@]43[C@@H]65)C2)C1` [vinblastine], the “reduction of effective concentration by treatment with P-gp modulators” value in [13] is 351 fold.
